System: EAE (experimental autoimmune encephalomyelitis)
Experiment: EAE semi-therapeutic vaccine study (clinical score, EAE-free mice)
Type: in vivo, C57BL/6 mice
Conditions: intravenous injection on days 4, 7 and 10 after EAE induction (semi-therapeutics)
Method: EAE was induced in female C57BL/6 mice aged 10-11 weeks using a kit (EK-2110) from Hooke Laboratory (Lawrence, Mass., USA). Briefly, on day 0, mice were subcutaneously injected with an emulsion containing MOG35-55 peptide and complete Freund's adjuvant (CFA), in the lower and upper back. After 2 and 24 h, the animals were intraperitoneally injected with pertussis toxin (PTX) according to the manufacturer's instructions. EAE clinical score was evaluated after day 8, post-EAE induction based on the standard protocol in a blinded manner (0, no obvious symptoms; 0.5, tip of tail was limp; 1, limp tail; 1.5, limp tail and hind leg inhibition; 2, limp tail and weakness of hind legs; 2.5, limp tail and dragging of hind legs; 3, complete paralysis of hind legs; 3.5, complete paralysis of hind legs and hind legs together on one side of the body; 4, full hind leg and partial front leg paralysis; 4.5 full hind leg and partial front leg paralysis, no movement). Paralyzed mice were given easier access to water and food. Mice were euthanized if any of the following conditions were observed unable to eat, unresponsive when scored as 4, when scored as 4 for two consecutive days, both hind limbs and forelimbs were completely paralyzed. […]

## myelin oligodendrocyte glycoprotein (MOG) peptide 35-55 [soluble MOG]
  EAE progression / development (clinical score): slightly delayed EAE progression
